From ChEMBL document CHEMBL1150485, “Rapid synthesis and properties of ()-6-Deoxy-6-fluoro-myo-inositol-1,4,5-tris(phosphate) an analogue of myo-inositol-1,4,5-tris(phosphate)” (Bioorg Med Chem Lett, 1996)

Species: Bos taurus
Test: Binding affinity on adrenal cortex microsomes
Format: functional

Kd | SMILES
1.6 µM | O=P(O)(O)O[C@@H]1[C@H](O)[C@H](O)[C@@H](OP(=O)(O)O)[C@H](OP(=O)(O)O)[C@H]1F
4 µM | O=P(O)(O)O[C@@H]1CC[C@@H](OP(=O)(O)O)[C@H](OP(=O)(O)O)C1
0.01 µM | O=P(O)(O)O[C@@H]1[C@H](O)[C@H](O)[C@@H](OP(=O)(O)O)[C@H](OP(=O)(O)O)[C@H]1O [INS(1,4,5)P3]
